Test [1] addresses T1, Lysine-specific demethylase 3A (Homo sapiens, UniProt Q9Y4C1).
T1 sequence (Q9Y4C1 whole entry): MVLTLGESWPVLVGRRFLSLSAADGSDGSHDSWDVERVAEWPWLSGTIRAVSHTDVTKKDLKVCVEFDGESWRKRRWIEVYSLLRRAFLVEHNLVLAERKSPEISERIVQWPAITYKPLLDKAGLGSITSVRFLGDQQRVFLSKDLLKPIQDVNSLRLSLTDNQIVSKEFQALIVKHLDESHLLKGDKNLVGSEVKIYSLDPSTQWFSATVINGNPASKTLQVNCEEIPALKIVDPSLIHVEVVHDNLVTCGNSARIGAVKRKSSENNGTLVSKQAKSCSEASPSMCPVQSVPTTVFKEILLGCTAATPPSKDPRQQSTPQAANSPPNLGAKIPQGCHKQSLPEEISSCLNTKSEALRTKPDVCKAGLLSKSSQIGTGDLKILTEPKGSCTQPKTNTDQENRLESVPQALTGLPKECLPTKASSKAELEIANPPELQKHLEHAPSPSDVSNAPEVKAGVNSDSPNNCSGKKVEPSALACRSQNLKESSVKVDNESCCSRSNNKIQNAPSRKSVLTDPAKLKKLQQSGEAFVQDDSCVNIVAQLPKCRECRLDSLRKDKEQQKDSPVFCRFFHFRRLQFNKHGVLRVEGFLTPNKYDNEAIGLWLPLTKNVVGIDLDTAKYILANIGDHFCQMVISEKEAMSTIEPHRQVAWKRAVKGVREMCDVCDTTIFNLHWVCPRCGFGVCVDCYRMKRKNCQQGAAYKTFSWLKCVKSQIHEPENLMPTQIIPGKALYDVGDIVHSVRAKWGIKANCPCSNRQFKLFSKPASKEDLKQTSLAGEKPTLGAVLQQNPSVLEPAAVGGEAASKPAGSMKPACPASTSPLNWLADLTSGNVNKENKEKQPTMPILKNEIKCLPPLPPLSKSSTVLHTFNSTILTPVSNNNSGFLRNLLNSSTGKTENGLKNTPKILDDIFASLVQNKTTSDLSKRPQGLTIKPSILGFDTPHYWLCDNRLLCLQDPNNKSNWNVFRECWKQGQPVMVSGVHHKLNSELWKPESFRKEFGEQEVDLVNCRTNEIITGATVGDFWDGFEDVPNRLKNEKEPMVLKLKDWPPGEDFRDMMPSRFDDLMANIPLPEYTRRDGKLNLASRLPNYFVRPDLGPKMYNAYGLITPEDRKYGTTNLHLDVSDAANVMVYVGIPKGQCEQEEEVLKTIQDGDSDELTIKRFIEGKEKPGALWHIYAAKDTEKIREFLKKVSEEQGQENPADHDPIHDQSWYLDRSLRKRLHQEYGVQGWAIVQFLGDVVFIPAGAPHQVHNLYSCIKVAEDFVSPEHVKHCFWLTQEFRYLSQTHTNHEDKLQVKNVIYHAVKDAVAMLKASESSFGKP
Kind of test: Inhibition of KDM3A (unknown origin) expressed in Escherichia coli using H3 (1 to 21 residues) K9Me2-GGK-Biotin KDM3A Cognate Ligand/10 uM alpha-ketoglutarate as substrate/cofactor preincubated for 5 mins followed by substrate addition measured after 20 mins by alphascreen assay. On the technique in general: Bead proximity is the source of the signal in Alpha formats.

Test [2] has as its target Hypoxia-inducible factor 1-alpha inhibitor (Homo sapiens, UniProt Q9NWT6). As to the kind of experiment: Inhibition of N-terminal His6-tagged full-length FIH (unknown origin) expressed in Escherichia coli Rosetta 2(DE3)pLysS using SMDESGLPQLTSYDCEVNAPIQGSRNLLQGEELLRALDQVN peptide/100 uM alpha-ketoglutarate as substrate/cofactor incubated for 45 mins by MALDI assay.
Test [3] has as its target T2, Lysine-specific demethylase 4C (Homo sapiens, UniProt Q9H3R0).
T2 sequence (Q9H3R0 whole entry): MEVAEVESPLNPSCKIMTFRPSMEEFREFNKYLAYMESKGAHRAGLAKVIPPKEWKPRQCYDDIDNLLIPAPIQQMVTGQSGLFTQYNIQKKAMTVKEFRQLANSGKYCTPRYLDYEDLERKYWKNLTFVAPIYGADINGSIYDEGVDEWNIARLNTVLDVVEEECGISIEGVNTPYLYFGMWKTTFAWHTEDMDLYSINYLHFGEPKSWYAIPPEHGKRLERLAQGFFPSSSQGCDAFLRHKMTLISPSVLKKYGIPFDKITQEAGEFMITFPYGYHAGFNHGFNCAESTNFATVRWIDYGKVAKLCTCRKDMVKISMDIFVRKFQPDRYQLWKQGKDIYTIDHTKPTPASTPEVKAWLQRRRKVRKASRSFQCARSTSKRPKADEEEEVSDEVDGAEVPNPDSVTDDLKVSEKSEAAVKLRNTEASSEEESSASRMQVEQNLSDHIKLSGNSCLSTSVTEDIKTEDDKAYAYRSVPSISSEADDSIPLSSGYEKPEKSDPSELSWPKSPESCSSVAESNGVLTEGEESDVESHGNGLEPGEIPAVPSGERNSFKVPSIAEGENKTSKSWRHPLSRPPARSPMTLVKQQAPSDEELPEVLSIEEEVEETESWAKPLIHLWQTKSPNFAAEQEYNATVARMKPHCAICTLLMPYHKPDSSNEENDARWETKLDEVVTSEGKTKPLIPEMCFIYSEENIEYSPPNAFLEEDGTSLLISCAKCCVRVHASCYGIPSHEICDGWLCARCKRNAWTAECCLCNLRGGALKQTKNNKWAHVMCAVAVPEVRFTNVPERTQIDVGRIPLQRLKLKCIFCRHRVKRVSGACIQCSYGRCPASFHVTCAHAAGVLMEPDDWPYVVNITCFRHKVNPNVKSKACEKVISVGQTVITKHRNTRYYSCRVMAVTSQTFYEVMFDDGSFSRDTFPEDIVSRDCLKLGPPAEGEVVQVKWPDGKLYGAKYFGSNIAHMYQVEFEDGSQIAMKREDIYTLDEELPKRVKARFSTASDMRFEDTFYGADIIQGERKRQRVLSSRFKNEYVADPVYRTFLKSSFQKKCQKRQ
As to the kind of experiment: Inhibition of N-terminal His6-tagged KDM4C (1 to 352 residues) (unknown origin) expressed in Escherichia coli Rosetta 2(DE3)pLysS using biotinylated peptide/ 2 uM alpha-ketoglutarate as substrate/cofactor preincubated for 15 mins followed by substrate addition measured after 15 mins by alphascreen assay.

The target of test [4] is T2, Lysine-specific demethylase 4C. As to the kind of experiment: Inhibition of N-terminal His6-tagged KDM4C (1 to 352 residues) (unknown origin) expressed in Escherichia coli Rosetta 2(DE3)pLysS using biotinylated histone H3 (1 to 21 residues) lysine 9 trimethylated peptide/2 uM alpha-ketoglutarate as substrate/cofactor measured after 45 mins by TR-FRET assay. The following applies: read-out: IC50. In general terms: In TR-FRET formats the signal depends on donor and acceptor labels being close together.

For test [5] the target is unchanged. As to the kind of experiment: Inhibition of N-terminal His6-tagged KDM4C (1 to 352 residues) (unknown origin) expressed in Escherichia coli Rosetta 2(DE3)pLysS using biotinylated histone H3 (1 to 21 residues) lysine 9 trimethylated peptide/50 uM alpha-ketoglutarate as substrate/cofactor measured after 45 mins by TR-FRET assay. Conditions: read-out: IC50.
For test [6] the target is unchanged. As to the kind of experiment: Inhibition of N-terminal His6-tagged KDM4C (1 to 352 residues) (unknown origin) expressed in Escherichia coli Rosetta 2(DE3)pLysS using ARTKQTARK(Me3)STGGKA peptide/100 uM alpha-ketoglutarate as substrate/cofactor incubated for 45 mins by MALDI assay.

The IC50 is the concentration that gives 50% inhibition.

Sequence of Hypoxia-inducible factor 1-alpha inhibitor (Q9NWT6 whole entry): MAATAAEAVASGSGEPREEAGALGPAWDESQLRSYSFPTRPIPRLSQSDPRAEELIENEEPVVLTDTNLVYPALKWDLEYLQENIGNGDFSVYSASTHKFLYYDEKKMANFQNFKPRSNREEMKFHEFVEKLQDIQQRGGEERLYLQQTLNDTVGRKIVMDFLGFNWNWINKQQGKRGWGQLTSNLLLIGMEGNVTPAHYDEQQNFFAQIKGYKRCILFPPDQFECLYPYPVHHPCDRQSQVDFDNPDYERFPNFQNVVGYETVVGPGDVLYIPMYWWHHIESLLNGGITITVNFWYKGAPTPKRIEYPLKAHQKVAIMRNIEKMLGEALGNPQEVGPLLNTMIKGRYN

Regarding `COc1cccc(CC(=O)Nc2ccc(O)c(-c3cc(C(=O)O)ccn3)c2)c1`, the half-inhibitory concentration (IC50) was 9 µM in test [1]; greater than 500 µM in test [2]; 9.9 µM in test [3]; 0.14 µM in test [4]; 1.5 µM in test [5]; 7.3 µM in test [6].

As to `O=C(O)c1ccnc(-c2cc(NC(=O)c3ccc(O)cc3)ccc2O)c1`, the IC50 in test [1] was 2.3 µM; in test [2] it was greater than 500 µM; in test [3], 12 µM; in test [4], 0.064 µM; in test [5], 2.6 µM; in test [6], 5.9 µM.

Consider `CC(=O)Nc1ccc(O)c(-c2cc(C(=O)O)ccn2)c1`, for which the IC50 in test [1] was 33 µM; in test [2], greater than 500 µM; in test [3], 15 µM; in test [4] it was 1.2 µM; in test [5], 40 µM; in test [6], 63 µM.

For `Cc1cc(C(=O)Nc2ccc(O)c(-c3cc(C(=O)O)ccn3)c2)no1`, the IC50 is 5.7 µM in test [1]; 473 µM in test [2]; 5.5 µM in test [3]; 0.065 µM in test [4]; 5 µM in test [5]; 16 µM in test [6].

With `COCC(=O)Nc1ccc(O)c(-c2cc(C(=O)O)ccn2)c1`, the IC50 is 11 µM in test [1]; greater than 500 µM in test [2]; 3.8 µM in test [3]; 0.14 µM in test [4]; 7.4 µM in test [5]; 47 µM in test [6].

Source of the values: ChEMBL document CHEMBL3774347, “Docking and Linking of Fragments To Discover Jumonji Histone Demethylase Inhibitors” (J Med Chem, 2016).
